Source: ChEMBL document CHEMBL3885881, “DrugMatrix”

Species: Rattus norvegicus
Assay type: toxicity, organism-based, Sprague-Dawley
Conditions: in vivo, po, 24 h, route oral GAVAGE, time 1 day, vehicle .5 % CMC; for ABSOLUTE EOSINOPHIL / ABSOLUTE LYMPHOCYTE / ABSOLUTE MONOCYTE / ABSOLUTE SEGMENTED NEUTROPHIL / BASOPHIL / EOSINOPHIL / ERYTHROCYTE COUNT / HEMATOCRIT / HEMOGLOBIN / LEUKOCYTE COUNT / LYMPHOCYTE / MEAN CORPUSCULAR HEMOGLOBIN / MEAN CORPUSCULAR HEMOGLOBIN CONCENTRATION / MEAN CORPUSCULAR VOLUME / MONOCYTE / NEUTROPHIL / NUCLEATED RED BLOOD CELLS / PLATELET COUNT: tissue Blood; for ALANINE AMINOTRANSFERASE / ALBUMIN / ALKALINE PHOSPHATASE / ASPARTATE AMINOTRANSFERASE / BLOOD UREA NITROGEN / CARBON DIOXIDE / CHLORIDE / CHOLESTEROL / CREATININE / GLUCOSE / LACTATE DEHYDROGENASE / LIPASE / PHOSPHORUS / POTASSIUM / SODIUM / TOTAL BILIRUBIN / TOTAL PROTEIN / URIC ACID: tissue Plasma
[1] = 0 mg/kg, vehicle control, dose level Control

Description: DrugMatrix - Regimen: Single

COc1ccccc1[N+](=O)[O-] [2-NITROANISOLE]
ABSOLUTE EOSINOPHIL [1]: 150 CELLS/uL | ABSOLUTE LYMPHOCYTE [1]: 13279.83 CELLS/uL | ABSOLUTE MONOCYTE [1]: 654.5 CELLS/uL | ABSOLUTE SEGMENTED NEUTROPHIL [1]: 1565.67 CELLS/uL | BASOPHIL [1]: 0% | EOSINOPHIL [1]: 1% | ERYTHROCYTE COUNT [1]: 5.36 x10E6/uL | HEMATOCRIT [1]: 33.37% | HEMOGLOBIN [1]: 12.52 G/DL | LEUKOCYTE COUNT [1]: 15.65 x10E3/uL | LYMPHOCYTE [1]: 84.83% | MEAN CORPUSCULAR HEMOGLOBIN [1]: 23.4 pg | MEAN CORPUSCULAR HEMOGLOBIN CONCENTRATION [1]: 37.52 G/DL | MEAN CORPUSCULAR VOLUME [1]: 62.32 fL | MONOCYTE [1]: 4.17% | NEUTROPHIL [1]: 10% | NUCLEATED RED BLOOD CELLS [1]: 0 /100WBC | PLATELET COUNT [1]: 1020 x10E3/uL | ALANINE AMINOTRANSFERASE [1]: 49 u/L | ALBUMIN [1]: 4.47 G/DL | ALKALINE PHOSPHATASE [1]: 361.17 u/L | ASPARTATE AMINOTRANSFERASE [1]: 78.67 u/L | BLOOD UREA NITROGEN [1]: 13.17 mg/dL | CARBON DIOXIDE [1]: 29.67 mmol/L | CHLORIDE [1]: 100.83 MEQ/L | CHOLESTEROL [1]: 82.17 mg/dL | CREATININE [1]: 0.15 mg/dL | GLUCOSE [1]: 150.83 mg/dL | LACTATE DEHYDROGENASE [1]: 239.17 u/L | LIPASE [1]: 7.83 u/L | PHOSPHORUS [1]: 13.82 mg/dL | POTASSIUM [1]: 6.62 MEQ/L | SODIUM [1]: 144.25 MEQ/L | TOTAL BILIRUBIN [1]: 0.15 mg/dL | TOTAL PROTEIN [1]: 6.2 G/DL | URIC ACID [1]: 1.57 mg/dL | ABSOLUTE EOSINOPHIL (740 mg/kg, dose level High): 270.67 CELLS/uL | ABSOLUTE LYMPHOCYTE (740 mg/kg, dose level High): 12900.33 CELLS/uL | ABSOLUTE MONOCYTE (740 mg/kg, dose level High): 775.33 CELLS/uL | ABSOLUTE SEGMENTED NEUTROPHIL (740 mg/kg, dose level High): 1353.67 CELLS/uL | BASOPHIL (740 mg/kg, dose level High): 0% | EOSINOPHIL (740 mg/kg, dose level High): 2% | ERYTHROCYTE COUNT (740 mg/kg, dose level High): 5.82 x10E6/uL | HEMATOCRIT (740 mg/kg, dose level High): 35.73% | HEMOGLOBIN (740 mg/kg, dose level High): 13 G/DL | LEUKOCYTE COUNT (740 mg/kg, dose level High): 15.3 x10E3/uL | LYMPHOCYTE (740 mg/kg, dose level High): 84.33% | MEAN CORPUSCULAR HEMOGLOBIN (740 mg/kg, dose level High): 22.4 pg | MEAN CORPUSCULAR HEMOGLOBIN CONCENTRATION (740 mg/kg, dose level High): 36.43 G/DL | MEAN CORPUSCULAR VOLUME (740 mg/kg, dose level High): 61.43 fL | MONOCYTE (740 mg/kg, dose level High): 5% | NEUTROPHIL (740 mg/kg, dose level High): 8.67% | NUCLEATED RED BLOOD CELLS (740 mg/kg, dose level High): 0 /100WBC | PLATELET COUNT (740 mg/kg, dose level High): 1078.67 x10E3/uL | ALANINE AMINOTRANSFERASE (740 mg/kg, dose level High): 63 u/L | ALBUMIN (740 mg/kg, dose level High): 4.53 G/DL | ALKALINE PHOSPHATASE (740 mg/kg, dose level High): 432.67 u/L | ASPARTATE AMINOTRANSFERASE (740 mg/kg, dose level High): 85.67 u/L | BLOOD UREA NITROGEN (740 mg/kg, dose level High): 13 mg/dL | CARBON DIOXIDE (740 mg/kg, dose level High): 29 mmol/L | CHLORIDE (740 mg/kg, dose level High): 102.33 MEQ/L | CHOLESTEROL (740 mg/kg, dose level High): 77.67 mg/dL | CREATININE (740 mg/kg, dose level High): 0.2 mg/dL | GLUCOSE (740 mg/kg, dose level High): 124.33 mg/dL | LACTATE DEHYDROGENASE (740 mg/kg, dose level High): 283.67 u/L | LIPASE (740 mg/kg, dose level High): 9 u/L | PHOSPHORUS (740 mg/kg, dose level High): 12.9 mg/dL | POTASSIUM (740 mg/kg, dose level High): 7.13 MEQ/L | SODIUM (740 mg/kg, dose level High): 144.43 MEQ/L | TOTAL BILIRUBIN (740 mg/kg, dose level High): 0.27 mg/dL | TOTAL PROTEIN (740 mg/kg, dose level High): 6.03 G/DL | URIC ACID (740 mg/kg, dose level High): 1.33 mg/dL
